Test results published in patent publication US9539252B2, “Piperazine-substituted benzothiophene derivatives as antipsychotic agents” (OTSUKA PHARMACEUTICAL CO., LTD., priority 2011, dated 2017).

Assay: Solubility in oil (sesame oil, benzyl benzoate), visual observation
Details: benzyl benzoate, oil or lipid, thermodynamic from solid
Experimental: Each of the Example compounds was examined for the solubility in oil (sesame oil, benzyl benzoate).
For the specific gravity of an oil, the following values were applied. • sesame oil (specific gravity: 0.914-0.921) • benzyl benzoate (specific gravity: 1.123) • (Method)
Example compound is measured in a microtube and an oil (sesame oil, or, benzyl benzoate) in an amount to make the concentration 10 mg/0.1 ml is added. After stirring, the solubility is evaluated by visual observation. When the compound is not dissolved, the mixture is heated, and the solubility is evaluated after cooling.
In the case of O=C(OCn1c(=O)ccc2ccc(OCCCCN3CCN(c4cccc5sccc45)CC3)cc21)c1cccs1 [Example 141, thiophene-2-carboxylic acid 7-[4-(4-benzo[b]thiophen-4-ylpiperazin-1-yl)butoxy]-2-oxo-2H-quinolin-1-ylmethyl ester], the solubility is reported as > 100 mg/mL. For CCCCC(C)(C)C(=O)OCn1c(=O)ccc2ccc(OCCCCN3CCN(c4cccc5sccc45)CC3)cc21 [Example 103, 2,2-dimethylhexanoic acid 7-[4-(4-benzo[b]thiophen-4-ylpiperazin-1-yl)butoxy]-2-oxo-2H-quinolin-1-ylmethyl ester], the solubility was > 100 mg/mL. With O=C(OCn1c(=O)ccc2ccc(OCCCCN3CCN(c4cccc5sccc45)CC3)cc21)c1ccccc1 [Example 12, benzoic acid 7-[4-(4-benzo[o]thiophen-4-ylpiperazin-1-yl)butoxy]-2-oxo-2H-quinolin-1-ylmethyl ester] the solubility was > 100 mg/mL. For CCCCCCCC(=O)OCn1c(=O)ccc2ccc(OCCCCN3CCN(c4cccc5sccc45)CC3)cc21 [Example 30, octanoic acid 7-[4-(4-benzo[b]thiophen-4-ylpiperazin-1-yl)butoxy]-2-oxo-2H-quinolin-1-ylmethyl ester], the solubility was > 100 mg/mL. In the case of CCCCCCCCCC(=O)OCn1c(=O)ccc2ccc(OCCCCN3CCN(c4cccc5sccc45)CC3)cc21 [Example 59, decanoic acid 7-[4-(4-benzo[b]thiophen-4-ylpiperazin-1-yl)butoxy]-2-oxo-2H-quinolin-1-ylmethyl ester], the solubility is reported as > 100 mg/mL. With CCCCCCCCCCCCCC(=O)OCN1C(=O)CCc2ccc(OCCCCN3CCN(c4cccc5sccc45)CC3)cc21 [Example 82, tetradecanoic acid 7-[4-(4-benzo[b]thiophen-4-ylpiperazin-1-yl)butoxy]-2-oxo-3,4-dihydro-2H-quinolin-1-ylmethyl ester] the solubility was > 100 mg/mL. For CCCCCCOC(=O)OCOc1ccc2ccc(OCCCCN3CCN(c4cccc5sccc45)CC3)cc2n1 [Example 373, 7-[4-(4-benzo[b]thiophen-4-yl-piperazin-1-yl)-butoxy]-quinolin-2-yloxymethylhexyl carbonate], the solubility was > 100 mg/mL. In the case of CCNC(=O)OCN1C(=O)CCc2ccc(OCCCCN3CCN(c4cccc5sccc45)CC3)cc21 [Example 51, N-ethylcarbamic acid 7-[4-(4-benzo[b]thiophen-4-ylpiperazin-1-yl)butoxy]-2-oxo-3,4-dihydro-2H-quinolin-1-ylmethyl ester], the solubility is reported as > 100 mg/mL. With CCCC(=O)OCn1c(=O)ccc2ccc(OCCCCN3CCN(c4cccc5sccc45)CC3)cc21 [Example 20, butyric acid 7-[4-(4-benzo[b]thiophen-4-ylpiperazin-1-yl)butoxy]-2-oxo-2H-quinolin-1-ylmethyl ester] the solubility was > 100 mg/mL. In the case of CCOC(=O)OCn1c(=O)ccc2ccc(OCCCCN3CCN(c4cccc5sccc45)CC3)cc21 [Example 50, carbonic acid 7-[4-(4-benzo[b]thiophen-4-ylpiperazin-1-yl)butoxy]-2-oxo-2H-quinolin-1-ylmethyl ester ethyl ester], the solubility is reported as > 100 mg/mL. For O=C(Oc1ccc2ccc(OCCCCN3CCN(c4cccc5sccc45)CC3)cc2n1)C1CCCCC1 [Example 380, 7-[4-(4-benzo[b]thiophen-4-yl-piperazin-1-yl)-butoxy]-quinolin-2-yl cyclohexanecarboxylate], the solubility was > 100 mg/mL. For O=C(OCn1c(=O)ccc2ccc(OCCCCN3CCN(c4cccc5sccc45)CC3)cc21)C1CCCCC1 [Example 32, cyclohexanecarboxylic acid 7-[4-(4-benzo[b]thiophen-4-ylpiperazin-1-yl)butoxy]-2-oxo-2H-quinolin-1-ylmethyl ester], the solubility was > 100 mg/mL. In the case of CCCCCCCCCCCC(=O)OCOc1ccc2ccc(OCCCCN3CCN(c4cccc5sccc45)CC3)cc2n1 [Example 371, 7-[4-(4-benzo[b]thiophen-4-yl-piperazin-1-yl)-butoxy]-quinolin-2-yloxymethyl dodecanoate], the solubility is reported as > 100 mg/mL. For CC(C)(C)C(=O)OCn1c(=O)ccc2ccc(OCCCCN3CCN(c4cccc5sccc45)CC3)cc21 [Example 18, 2,2-dimethylpropionic acid 7-[4-(4-benzo[b]thiophen-4-ylpiperazin-1-yl)butoxy]-2-oxo-2H-quinolin-1-ylmethyl ester], the solubility was > 100 mg/mL. In the case of COCCNC(=O)OCn1c(=O)ccc2ccc(OCCCCN3CCN(c4cccc5sccc45)CC3)cc21 [Example 109, N-(2-methoxyethyl)carbamic acid 7-[4-(4-benzo[b]thiophen-4-ylpiperazin-1-yl)butoxy]-2-oxo-2H-quinolin-1-ylmethyl ester], the solubility is reported as > 100 mg/mL. With CN1CCC(C(=O)OCN2C(=O)CCc3ccc(OCCCCN4CCN(c5cccc6sccc56)CC4)cc32)CC1 [Example 102, 1-methylpiperidine-4-carboxylic acid 7-[4-(4-benzo[b]thiophen-4-ylpiperazin-1-yl)butoxy]-2-oxo-3,4-dihydro-2H-quinolin-1-ylmethyl ester] the solubility was > 100 mg/mL. In the case of CC(=O)OCn1c(=O)ccc2ccc(OCCCCN3CCN(c4cccc5sccc45)CC3)cc21 [Example 61, acetic acid 7-[4-(4-benzo[b]thiophen-4-ylpiperazin-1-yl)butoxy]-2-oxo-2H-quinolin-1-ylmethyl ester], the solubility is reported as > 100 mg/mL. In the case of CCCCCC(=O)OCn1c(=O)ccc2ccc(OCCCCN3CCN(c4cccc5sccc45)CC3)cc21 [Example 58, hexanoic acid 7-[4-(4-benzo[b]thiophen-4-ylpiperazin-1-yl)butoxy]-2-oxo-2H-quinolin-1-ylmethyl ester], the solubility is reported as > 100 mg/mL. In the case of CCCCCC(=O)OCN1C(=O)CCc2ccc(OCCCCN3CCN(c4cccc5sccc45)CC3)cc21 [Example 70, hexanoic acid 7-[4-(4-benzo[b]thiophen-4-ylpiperazin-1-yl)butoxy]-2-oxo-3,4-dihydro-2H-quinolin-1-ylmethyl ester], the solubility is reported as > 100 mg/mL. With CCCCCCCCCCCCCCOC(=O)OCn1c(=O)ccc2ccc(OCCCCN3CCN(c4cccc5sccc45)CC3)cc21 [Example 179, carbonic acid 7-[4-(4-benzo[b]thiophen-4-ylpiperazin-1-yl)butoxy]-2-oxo-2H-quinolin-1-ylmethyl ester tetradecyl ester] the solubility was > 100 mg/mL. With CN(C)C(=O)OCn1c(=O)ccc2ccc(OCCCCN3CCN(c4cccc5sccc45)CC3)cc21 [Example 56, N,N-dimethylcarbamic acid 7-[4-(4-benzo[b]thiophen-4-ylpiperazin-1-yl)butoxy]-2-oxo-2H-quinolin-1-ylmethyl ester] the solubility was > 100 mg/mL. With CCCC(C)C(=O)OCN1C(=O)CCc2ccc(OCCCCN3CCN(c4cccc5sccc45)CC3)cc21 (stereo not drawn) [Example 81, 2-methylpentanoic acid 7-[4-(4-benzo[b]thiophen-4-ylpiperazin-1-yl)butoxy]-2-oxo-3,4-dihydro-2H-quinolin-1-ylmethyl ester] the solubility was > 100 mg/mL. For CCCCCCCCCCNC(=O)OCn1c(=O)ccc2ccc(OCCCCN3CCN(c4cccc5sccc45)CC3)cc21 [Example 34, N-decylcarbamic acid 7-[4-(4-benzo[b]thiophen-4-ylpiperazin-1-yl)butoxy]-2-oxo-2H-quinolin-1-ylmethyl ester], the solubility was > 100 mg/mL. With O=C(OCN1C(=O)CCc2ccc(OCCCCN3CCN(c4cccc5sccc45)CC3)cc21)c1ccc2occc2c1 [Example 128, benzofuran-5-carboxylic acid 7-[4-(4-benzo[b]thiophen-4-ylpiperazin-1-yl)butoxy]-2-oxo-3,4-dihydro-2H-quinolin-1-ylmethyl ester] the solubility was > 100 mg/mL. In the case of O=C(OCn1c(=O)ccc2ccc(OCCCCN3CCN(c4cccc5sccc45)CC3)cc21)C1CCCCCC1 [Example 119, cycloheptanecarboxylic acid 7-[4-(4-benzo[b]thiophen-4-ylpiperazin-1-yl)butoxy]-2-oxo-2H-quinolin-1-ylmethyl ester], the solubility is reported as > 100 mg/mL. With CCCCCCCCCCCCCCC(=O)OCn1c(=O)ccc2ccc(OCCCCN3CCN(c4cccc5sccc45)CC3)cc21 [Example 104, pentadecanoic acid 7-[4-(4-benzo[b]thiophen-4-ylpiperazin-1-yl)butoxy]-2-oxo-2H-quinolin-1-ylmethyl ester] the solubility was > 100 mg/mL. For O=C(NCCc1ccccc1)OCn1c(=O)ccc2ccc(OCCCCN3CCN(c4cccc5sccc45)CC3)cc21 [Example 116, N-phenethylcarbamic acid 7-[4-(4-75 benzo[b]thiophen-4-ylpiperazin-1-yl)butoxy]-2-oxo-2H-quinolin-1-ylmethyl ester], the solubility was > 100 mg/mL. For O=C(NCc1ccccn1)OCn1c(=O)ccc2ccc(OCCCCN3CCN(c4cccc5sccc45)CC3)cc21 [Example 113], the solubility was > 100 mg/mL. For CCCCCCCCCCCCCCC(=O)OCN1C(=O)CCc2ccc(OCCCCN3CCN(c4cccc5sccc45)CC3)cc21 [Example 91, pentadecanoic acid 7-[4-(4-benzo[b]thiophen-4-ylpiperazin-1-yl)butoxy]-2-oxo-3,4-dihydro-2H-quinolin-1-ylmethyl ester], the solubility was > 100 mg/mL. In the case of O=C(NCC1CCCCC1)OCN1C(=O)CCc2ccc(OCCCCN3CCN(c4cccc5sccc45)CC3)cc21 [Example 29, N-cyclohexylmethylcarbamic acid 7-[4-(4-benzo[b]thiophen-4-ylpiperazin-1-yl)butoxy]-2-oxo-3,4-dihydro-2H-quinolin-1-ylmethyl ester], the solubility is reported as > 100 mg/mL. For CCCCN(C)C(=O)OCN1C(=O)CCc2ccc(OCCCCN3CCN(c4cccc5sccc45)CC3)cc21 [Example 16, N-butyl-N-methylcarbamic acid 7-[4-(4-benzo[b]thiophen-4-ylpiperazin-1-yl)butoxy]-2-oxo-3,4-dihydro-2H-quinolin-1-ylmethyl ester], the solubility was > 100 mg/mL. For CONC(=O)OCn1c(=O)ccc2ccc(OCCCCN3CCN(c4cccc5sccc45)CC3)cc21 [Example 129, N-methoxycarbamic acid (7-{4-[4-(benzo[b]thiophen-4-yl)piperazin-1-yl]butoxy}-2-oxo-2H-quinolin-1-yl)methyl], the solubility was > 100 mg/mL. For O=C(NCC1CCCCC1)OCn1c(=O)ccc2ccc(OCCCCN3CCN(c4cccc5sccc45)CC3)cc21 [Example 63, N-cyclohexylmethylcarbamic acid 7-[4-(4-benzo[b]thiophen-4-ylpiperazin-1-yl)butoxy]-2-oxo-2H-quinolin-1-ylmethyl ester], the solubility was > 100 mg/mL.

Same assay, conditions: sesame oil, oil or lipid, thermodynamic from solid
In the case of CCCCCCOC(=O)OCOc1ccc2ccc(OCCCCN3CCN(c4cccc5sccc45)CC3)cc2n1 [Example 373, 7-[4-(4-benzo[b]thiophen-4-yl-piperazin-1-yl)-butoxy]-quinolin-2-yloxymethylhexyl carbonate], the solubility is reported as > 100 mg/mL. In the case of O=C(Oc1ccc2ccc(OCCCCN3CCN(c4cccc5sccc45)CC3)cc2n1)C1CCCCC1 [Example 380, 7-[4-(4-benzo[b]thiophen-4-yl-piperazin-1-yl)-butoxy]-quinolin-2-yl cyclohexanecarboxylate], the solubility is reported as > 100 mg/mL. With CCCCCCCCCCCCCCOC(=O)OCn1c(=O)ccc2ccc(OCCCCN3CCN(c4cccc5sccc45)CC3)cc21 [Example 179, carbonic acid 7-[4-(4-benzo[b]thiophen-4-ylpiperazin-1-yl)butoxy]-2-oxo-2H-quinolin-1-ylmethyl ester tetradecyl ester] the solubility was > 100 mg/mL.
